Laboratory results as given in article PMC11329504, “Identification of novel small molecule-based strategies of COL7A1 upregulation and readthrough activity for the treatment of recessive dystrophic epidermolysis bullosa” (Scientific Reports, 2024).
Where two headings read alike, the source gives them in different places.

Key:
[1] = Cytotoxicity, ATP levels, normal human keratinocytes (NHK); assay type: cell-based; details: normal human keratinocytes (NHK)
Protocol: The viability of RDEB patient-derived cell lines or NHK was evaluated by measuring the ATP levels as an indirect readout of the potential cytotoxicity effect of compounds. Cells were plated and treated exactly with the same conditions as those followed in the AlphaLISA assay, described above. To measure ATP levels, cells were processed using the ATPlite™ 1step luminescence-based assay (PerkinElmer 6,016,731), following the manufacturer’s protocol. 25 μL of ATPlite™ reagent was added directly over cells and plates were covered with a sealing film and shaken for 25 min using a microtiter plate shaker. Luminescence was measured in a Luminoskan Ascent luminometer (Thermo Fisher Scientific). 10 μM of Staurosporine was used as a reference compound and control for the total cytotoxicity.

[2] = test system: truncated and full-length C7 in RDEB_L1, RDEB_L5 and HEK293^R578X cells; test: Western blot detection of truncated and full-length C7; assay type: cell-based, human
Protocol: For western blot, RDEB or normal human keratinocytes were lysed in protein extraction buffer (50 mM Tris–HCl [pH 7.5], 100 mM NaCl, 1% Nonidet P-40, and 4 mM EDTA) containing proteinase inhibitors cocktail (Complete Mini, EDTA free; Roche Diagnostics, Mannheim, Germany). Lysates were incubated for 30 min on ice and centrifuged at 15,000 g for 30 min at 4 °C. Supernatants were then collected and concentrated by ultrafiltration using Amicon Ultra columns (10 kDa; Millipore, Ireland). Protein concentrations were measured using the Bradford assay (Bio-Rad, Hercules, CA). For each sample, […] total protein was resolved on NuPAGE Novex 3%–8% Tris–Acetate gel electrophoresis (Invitrogen, Carlsbad, CA) and electrotransferred to nitrocellulose membranes (Invitrogen, Carlsbad, CA). For type VII collagen analysis, blots were probed with a monospecific polyclonal anti-C7 antibody (a generous gift from Dr. A. Nystrom, University of Freiburg). Invitrogen anti-MDH1 polyclonal antibody (PA550446, 1:1000) was used to detect MDH1. Standard antibodies against a reference protein were used as a loading control, as indicated. Visualization of the resulting signal was performed by incubating with horseradish peroxidase (HRP)- conjugated anti-rabbit antibody (Amersham, Burlington, MA) and West Pico Chemiluminescent Substrate (Pierce, Rockford, IL).

[3] = test system: COL7A1 mRNA in RDEB_L1 and RDEB_L5 cells; test: Real-time qPCR of COL7A1 mRNA; assay type: cell-based, human; details: 24 h, 20 ng/mL TGFβ2
Protocol: For real-time qPCR, 15,000 RDEB keratinocytes or normal human epidermal keratinocytes were plated in a 96-well cell culture plate in 80 µL of supplemented KGM medium without GA-1000 and containing 20 ng/mL of TGFβ2 for RDEB keratinocytes, and cells were incubated overnight at 37 °C and 5%CO2. The day after, cells were treated with 20 µL of test compounds prepared 5 × in supplemented KGM without GA-100, for 24 h at 37 °C and 5% CO2. For the mRNA extraction, the medium was removed, cells were washed with PBS, and conserved at -80 °C until the total RNA extraction.
RNA extraction was conducted using the RNeasy 96 Kit (4) (Qiagen 74181) following the manufacturer’s instructions. Total RNA was recovered in 50 µL of RNase-free water and the yield of extracted RNA was quantified using a NanoDrop 2000 Spectrophotometer (ThermoFisher). Purified RNA was stored at -80 °C until RT-qPCR.
Real time-qPCR was performed by using the iTaq Universal Probes One-Step Kit, (cat. 1725140, Bio-Rad) and according to the manufacturer’s instructions. […] RT-qPCR was performed to quantify the COL7A1 mRNA (exon 64) expression.
For COL7A1 quantitative gene expression, human GAPDH was used as the endogenous control. Results were analyzed with the QuantStudio Real-Time PCR Software.

[4] = test system: MDH1 native stop codon readthrough in RDEB_L1 and RDEB_L5 cells; test: Western blot of MDH1 native stop codon (NSC) readthrough selectivity; assay type: cell-based, human; details: 48 h
Source text: In the absence of a verified target or mechanism of action, a key aspect of phenotypic screening is to ensure that the phenotypic activity is sufficiently selective and has minimal or no interference in physiologically close cellular processes. In this context, the selectivity of readthrough compounds vs native stop codons (NSC) and normal codon–anticodon recognition is an important endpoint to verify the selectivity of hit compounds. For that purpose, we analyzed the translation products of MDH-1, a gene that has an alternative native stop codon that has been used as a surrogate of non-specific readthrough activity[42],[43]. […] For western blot, RDEB or normal human keratinocytes were lysed in protein extraction buffer (50 mM Tris–HCl [pH 7.5], 100 mM NaCl, 1% Nonidet P-40, and 4 mM EDTA) containing proteinase inhibitors cocktail (Complete Mini, EDTA free; Roche Diagnostics, Mannheim, Germany). Lysates were incubated for 30 min on ice and centrifuged at 15,000 g for 30 min at 4 °C. Supernatants were then collected and concentrated by ultrafiltration using Amicon Ultra columns (10 kDa; Millipore, Ireland). Protein concentrations were measured using the Bradford assay (Bio-Rad, Hercules, CA). […] A. Nystrom, University of Freiburg). Invitrogen anti-MDH1 polyclonal antibody (PA550446, 1:1000) was used to detect MDH1. […]

[5] = human, NHK cells, ATP levels, read-out: Cytotox. IC50

Row | SMILES | IC50 [1, 5] [µM] | C7 products induced, western blot ([2]; RDEB_L1 cells, 10 μM) | levels of COL7A1 mRNA (qPCR) [3] | non-specific readthrough at MDH-1 native stop codon, western blot ([4]; two and threefold above its EC50 in RDEB_L5 and RDEB_L1 cells respectively) | IC50 ([1]; read-out: cytotoxicity IC50) [µM] | C7 products induced, western blot ([2]; RDEB_L1 and HEK293^R578X cells, 50 μM compound 7, 50 μM chuangxinmycin, 100 μM 3-methyl-chuangxinmycin) | non-specific readthrough at MDH-1 native stop codon, western blot ([4]; twofold above its EC50 in RDEB_L1) | concentrations showing some upregulation of truncated and full-length forms of C7 in western blot ([2]; western blot) [mM]
1 | NC(=O)Cn1ccc2ccc(-c3cnc(N)c(C(=O)NC4C5CC6CC4CC(O)(C6)C5)n3)cc21 (stereo not shown) [Compound 1] | 19 ± 2.4 | only upregulating the truncated form of C7 | TGFβ2 was required for full upregulation |  |  |  |  | 
2 | C#Cc1cc(-c2ccncc2)c(-c2cccc(F)c2)nc1N [Compound 7] |  |  | did not result in an increase in C7 mRNA levels | did not induce non-specific readthrough above background levels | > 100 | partially upregulated full-length C7 |  | 
3 | CNC(C)C1CCC(N)C(OC2C(N)CC(N)C(OC3OCC(C)(O)C(NC)C3O)C2O)O1 (stereo not shown) [Gentamicin, reference compound] | 1600 ± 280 |  |  |  |  |  | inducing detectable non-specific readthrough | > 1
